Five molecules from PMC5761851, “Application of a phenotypic drug discovery strategy to identify biological and chemical starting points for inhibition of TSLP production in lung epithelial cells” (PLoS ONE, 2018) can be followed below.

Molecules are shown by their SMILES. Where “and” joins values, the source holds several entries; their conditions need not be identical. Equal values may be shown once. Read-outs that look alike come from different tables or passages of the source.

As usually defined, the IC50 is the concentration at which inhibition is half-maximal. The term inhibition denotes the relative decrease from the control value, in per cent.

Assay [1] concerns TSLP production in NHBE cells. The assay can be described thus: TSLP HTRF assay (TSLP production in poly I:C / IL-4 stimulated NHBE cells). Format: cell-based, human. On the procedure:
For dose response curves determinations, stocks of test compounds at a concentration of 1.33x10^-3 M in DMSO were sequentially diluted at 1:4 dilution steps before further 1/50 dilution in BEBM medium containing 1x ITS and 0.1% BSA. For the highest 4 μM concentration test compounds were resuspended in DMSO at a concentration of 2.5x10^-3 M and diluted 1/25 in BEBM medium containing 1x ITS and 0.1% BSA before adding 1 μl to the wells containing the cells.
All subsequent steps were automated using a Sciclone® G3 workstation (Perkin Elmer) with a Twister™ II robot (Perkin Elmer). […] 1 μl of test compound solution prepared at 25x concentration was added to the wells containing NHBE cells. The plates were then incubated during 90 minutes at 37°C, 5% CO2, 90% humidity before adding poly I:C (Invivogen HMW Tirl-pic-5) and human IL-4 (Peprotech 200–04) stimulus in 4 μl of BEBM medium containing 1x ITS, 0.1% BSA and 0.1% DMSO using a Multidrop™. […] Cells were then incubated for 24h in the presence of test compounds and stimulus at 37°C, 5% CO2 and 90% humidity conditions. After the 24h incubation period the plates were transferred to a CyBi®-Well platform (CyBio AG) to collect 10 μl of the supernatants which were transferred to a new plate. TSLP levels in the supernatant were determined using a homogeneous Time-Resolved Fluorescence (HTRF) assay custom developed by Cisbio. The assay was based in the use of a donor dye (europium cryptate) coupled to a monoclonal anti-TSLP antibody and an acceptor dye (d2) coupled to a second polyclonal anti-TSLP antibody. […] 10 μl of the resulting solution was then used to determine TSLP levels as described above.
The standard curve was built with eight points prepared in ITS/BSA in BEBM medium without supplements, starting at 700 pg/ml and diluted 1:2, with medium alone being zero TSLP. Fitting model corresponded to equation 100 of Excel fit software. Data from the primary phenotypic screen was visualized using Vortex (Dotmatics). […] For compound selection the maximum inhibition of the two individual duplicate values was taken into account. Dose response confirmation was performed at single point in the 2 donors tested. 9 point curves were run starting at 4 μM concentration by doing serial 1:4 dilutions in cells derived from both donors.

Assay [2] has as its system 125 representative kinases. The assay can be described thus: 125 kinase selectivity panel (overall). Format: biochemical. The note with it: 10 μM. On the procedure: Kinase selectivity was evaluated at Eurofins Pharma Discovery Services using a selection of 125 representative kinases tested at a concentration of 10 μM in duplicate (S3 Table). IC50 values for selected activities were further characterized at 9 duplicate concentrations. DNA-PK activity was determined at the SelectScreen® Biochemical kinase Profiling Service of Thermo Fisher Scientific.

In another assay the target is T1, delta 2 (DOP) (Homo sapiens, UniProt P41143).
T1 construct: purchased Eurofins Pharma Discovery Services (KinaseProfiler; Cerep BioPrint panel)
As to the kind of experiment: BioPrint panel: delta 2 (DOP) (h) (agonist). It counts as binding. To be noted: 1 micromolar, read-out: percentage of inhibition of activity. From the text:
(§1) Supplement pone.0189247.s004.xlsx, sheet "Bioprint Selectivity Panel" | column: %

The target in the next assay is PDE6 (Bos taurus, UniProt P11541+P23439). As to the kind of experiment: BioPrint panel: PDE6. Format: biochemical. On the procedure: General selectivity profiling was performed at Eurofins Pharma Discovery Services using the BioPrint® panel and reference database. The panel included 104 binding assays (non-peptide, peptide and nuclear receptors, ion channels and amine transporters) and 41 cell based and enzyme assays (including 10 kinases, 9 proteases and 5 phosphodiesterases) (S4 Table). More than 70% were human targets. Compound 4 was tested at a concentration of 1 μM in duplicate (10 μM for P-gp and CYP enzymes). The resulting bioactivity fingerprint was compared with a database of >2,500 BioPrint marketed drugs and reference compounds. IC50 values for selected activities were further characterized at 8 concentrations in duplicate.

The next assay deals with T2, H3 (Homo sapiens, UniProt Q9Y5N1).
T2 construct: purchased Eurofins Pharma Discovery Services (KinaseProfiler; Cerep BioPrint panel)
As to the kind of experiment: BioPrint panel: H3 (h) (agonist). To be noted: 1 micromolar, read-out: percentage of inhibition of activity. It counts as binding.
Text: as §1

The target of the next assay is T3, M2 (Homo sapiens, UniProt P08172).
T3 construct: purchased Eurofins Pharma Discovery Services (KinaseProfiler; Cerep BioPrint panel)
As to the kind of experiment: BioPrint panel: M2 (h) (antagonist). It counts as binding. The note with it: 1 micromolar, read-out: percentage of inhibition of activity.
Text: as §1

A further assay addresses T4, H1 (Homo sapiens, UniProt P35367).
T4 construct: purchased Eurofins Pharma Discovery Services (KinaseProfiler; Cerep BioPrint panel)
As to the kind of experiment: BioPrint panel: H1 (h) (antagonist). The note with it: 1 micromolar, read-out: percentage of inhibition of activity. Format: binding.
Text: as §1

A further assay addresses T5, NK1 (Homo sapiens, UniProt P25103).
T5 construct: purchased Eurofins Pharma Discovery Services (KinaseProfiler; Cerep BioPrint panel)
As to the kind of experiment: BioPrint panel: NK1 (h) (agonist). Format: binding. To be noted: 1 micromolar, read-out: percentage of inhibition of activity.
Text: as §1

In the next assay the target is T6, alpha 1B (Homo sapiens, UniProt P35368).
T6 construct: purchased Eurofins Pharma Discovery Services (KinaseProfiler; Cerep BioPrint panel)
As to the kind of experiment: BioPrint panel: alpha 1B (h) (antagonist). Format: binding. To be noted: 1 micromolar, read-out: percentage of inhibition of activity.
Text: as §1

Another assay deals with T7, H2 (Homo sapiens, UniProt P25021).
T7 construct: purchased Eurofins Pharma Discovery Services (KinaseProfiler; Cerep BioPrint panel)
The assay can be described thus: BioPrint panel: H2 (h) (antagonist). Format: binding. The note with it: 1 micromolar, read-out: percentage of inhibition of activity.
Text: as §1

The target of a further assay is T8, 5-HT4e (Homo sapiens, UniProt Q13639).
T8 construct: purchased Eurofins Pharma Discovery Services (KinaseProfiler; Cerep BioPrint panel)
The assay can be described thus: BioPrint panel: 5-HT4e (h) (antagonist). It counts as binding. The note with it: 1 micromolar, read-out: percentage of inhibition of activity.
Text: as §1

Another assay addresses T9, IP (PGI2) (Homo sapiens, UniProt P43119).
T9 construct: purchased Eurofins Pharma Discovery Services (KinaseProfiler; Cerep BioPrint panel)
As to the kind of experiment: BioPrint panel: IP (PGI2) (h) (agonist). To be noted: 1 micromolar, read-out: percentage of inhibition of activity. Format: binding.
Text: as §1

The test system of assay [3] is glycine (strychnine-insensitive). The assay can be described thus: BioPrint panel: glycine (strychnine-insensitive)(antagonist). The note with it: 1 micromolar. It counts as binding.
Text: as §1

Another assay addresses T10, GABAA1 (a1, b2, g2) (Homo sapiens, UniProt P14867+P47870).
T10 construct: purchased Eurofins Pharma Discovery Services (KinaseProfiler; Cerep BioPrint panel)
The assay can be described thus: BioPrint panel: GABAA1 (h) (a1, b2, g2)(agonist). It counts as binding. To be noted: 1 micromolar, read-out: percentage of inhibition of activity.
Text: as §1

The target of a further assay is T11, MC3 (Homo sapiens, UniProt P41968).
T11 construct: purchased Eurofins Pharma Discovery Services (KinaseProfiler; Cerep BioPrint panel)
As to the kind of experiment: BioPrint panel: MC3 (h) (agonist). It counts as binding. To be noted: 1 micromolar, read-out: percentage of inhibition of activity.
Text: as §1

For another assay, the target named is T12, neutral endopeptidase (Homo sapiens, UniProt P08473).
T12 construct: purchased Eurofins Pharma Discovery Services (KinaseProfiler; Cerep BioPrint panel)
As to the kind of experiment: BioPrint panel: neutral endopeptidase (h). It counts as biochemical. To be noted: 1 micromolar, read-out: percentage of inhibition of activity.
Text: as §1

Another assay addresses T13, beta 3 (Homo sapiens, UniProt P13945).
T13 construct: purchased Eurofins Pharma Discovery Services (KinaseProfiler; Cerep BioPrint panel)
As to the kind of experiment: BioPrint panel: beta 3 (h) (antagonist). The note with it: 1 micromolar, read-out: percentage of inhibition of activity. It counts as binding.
Text: as §1

The next assay addresses T14, MC4 (Homo sapiens, UniProt P32245).
T14 construct: purchased Eurofins Pharma Discovery Services (KinaseProfiler; Cerep BioPrint panel)
As to the kind of experiment: BioPrint panel: MC4 (h) (agonist). To be noted: 1 micromolar, read-out: percentage of inhibition of activity. It counts as binding.
Text: as §1

For another assay, the target named is T15, 5-HT1B (Rattus norvegicus, UniProt P28564).
T15 construct: purchased Eurofins Pharma Discovery Services (KinaseProfiler; Cerep BioPrint panel)
As to the kind of experiment: BioPrint panel: 5-HT1B (antagonist). It counts as binding. The note with it: 1 micromolar, read-out: percentage of inhibition of activity.
Text: as §1

In another assay the target is T16, alpha 2C (Homo sapiens, UniProt P18825).
T16 construct: purchased Eurofins Pharma Discovery Services (KinaseProfiler; Cerep BioPrint panel)
As to the kind of experiment: BioPrint panel: alpha 2C (h) (antagonist). It counts as binding. The note with it: 1 micromolar, read-out: percentage of inhibition of activity.
Text: as §1

In another assay the target is p38α (Homo sapiens, UniProt Q16539). The assay can be described thus: enzymatic p38 activity. It counts as biochemical.
The mark [4] stands for this setting: Homo sapiens, NHBE, 24 h, NHBE cells donor #1, poly I:C / IL-4, 24h, geometric mean, read-out: Inhibition of TSLP protein production (IC50, μM) (95% CI).
Where [5] appears, read: individual values, donor #1, read-out: Inhibition of TSLP production in NHBE (IC50).

Sequence of p38α (Q16539 whole entry): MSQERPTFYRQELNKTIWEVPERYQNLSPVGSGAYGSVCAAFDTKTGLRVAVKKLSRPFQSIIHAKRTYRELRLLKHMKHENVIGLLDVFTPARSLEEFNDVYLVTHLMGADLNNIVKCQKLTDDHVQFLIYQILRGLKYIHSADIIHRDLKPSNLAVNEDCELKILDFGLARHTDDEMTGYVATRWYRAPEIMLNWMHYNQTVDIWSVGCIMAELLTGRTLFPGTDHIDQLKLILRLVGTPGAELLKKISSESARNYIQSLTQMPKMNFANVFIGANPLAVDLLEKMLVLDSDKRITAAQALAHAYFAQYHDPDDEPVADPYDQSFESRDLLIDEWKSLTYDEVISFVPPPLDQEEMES
Sequence of PDE6 (P11541 2-856): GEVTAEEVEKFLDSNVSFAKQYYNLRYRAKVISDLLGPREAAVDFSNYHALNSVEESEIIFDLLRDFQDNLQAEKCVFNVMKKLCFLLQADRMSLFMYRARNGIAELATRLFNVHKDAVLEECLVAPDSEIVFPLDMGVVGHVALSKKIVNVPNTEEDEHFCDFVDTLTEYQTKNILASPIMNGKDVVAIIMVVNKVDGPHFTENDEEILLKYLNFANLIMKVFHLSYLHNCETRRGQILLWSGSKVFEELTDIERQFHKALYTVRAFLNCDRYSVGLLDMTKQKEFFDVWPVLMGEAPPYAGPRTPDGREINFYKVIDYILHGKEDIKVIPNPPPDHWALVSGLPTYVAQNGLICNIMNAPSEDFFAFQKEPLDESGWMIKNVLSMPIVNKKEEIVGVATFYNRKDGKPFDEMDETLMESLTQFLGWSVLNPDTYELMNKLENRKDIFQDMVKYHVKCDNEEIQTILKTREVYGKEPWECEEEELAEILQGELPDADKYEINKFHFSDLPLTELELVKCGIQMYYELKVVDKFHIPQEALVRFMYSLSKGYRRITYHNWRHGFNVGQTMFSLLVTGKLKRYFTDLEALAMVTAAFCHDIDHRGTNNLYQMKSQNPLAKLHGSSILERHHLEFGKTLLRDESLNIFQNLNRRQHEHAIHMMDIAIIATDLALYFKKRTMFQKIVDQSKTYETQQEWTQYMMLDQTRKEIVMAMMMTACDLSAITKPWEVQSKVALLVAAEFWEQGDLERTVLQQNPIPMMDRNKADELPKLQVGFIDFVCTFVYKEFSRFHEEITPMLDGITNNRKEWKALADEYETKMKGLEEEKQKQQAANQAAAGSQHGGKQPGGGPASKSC
Sequence of PDE6 (P23439 2-850): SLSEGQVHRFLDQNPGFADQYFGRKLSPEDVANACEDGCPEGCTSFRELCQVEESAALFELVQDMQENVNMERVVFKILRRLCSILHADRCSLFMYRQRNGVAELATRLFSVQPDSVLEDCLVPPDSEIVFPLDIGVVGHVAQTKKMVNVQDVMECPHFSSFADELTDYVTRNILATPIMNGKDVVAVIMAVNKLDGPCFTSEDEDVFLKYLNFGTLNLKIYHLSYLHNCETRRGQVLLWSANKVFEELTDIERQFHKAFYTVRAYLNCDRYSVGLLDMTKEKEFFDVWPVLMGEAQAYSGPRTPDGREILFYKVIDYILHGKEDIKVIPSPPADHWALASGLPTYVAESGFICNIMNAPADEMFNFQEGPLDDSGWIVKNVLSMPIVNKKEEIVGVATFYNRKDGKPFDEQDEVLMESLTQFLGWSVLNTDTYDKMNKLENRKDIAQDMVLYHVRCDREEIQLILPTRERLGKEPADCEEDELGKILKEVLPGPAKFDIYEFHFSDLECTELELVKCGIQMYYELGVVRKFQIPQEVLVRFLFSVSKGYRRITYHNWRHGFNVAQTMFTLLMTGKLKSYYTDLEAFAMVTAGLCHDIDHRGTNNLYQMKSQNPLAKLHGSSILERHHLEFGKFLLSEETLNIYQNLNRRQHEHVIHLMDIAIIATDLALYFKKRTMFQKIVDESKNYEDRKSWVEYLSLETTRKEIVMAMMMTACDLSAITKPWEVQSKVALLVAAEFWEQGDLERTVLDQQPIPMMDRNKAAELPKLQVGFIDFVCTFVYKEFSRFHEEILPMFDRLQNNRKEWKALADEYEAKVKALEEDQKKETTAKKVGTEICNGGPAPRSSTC
Sequence of PDE6 (P04972 whole entry partner): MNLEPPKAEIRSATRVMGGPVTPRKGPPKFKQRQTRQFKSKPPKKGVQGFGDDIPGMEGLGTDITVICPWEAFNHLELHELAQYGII
T16 sequence (P18825 whole entry): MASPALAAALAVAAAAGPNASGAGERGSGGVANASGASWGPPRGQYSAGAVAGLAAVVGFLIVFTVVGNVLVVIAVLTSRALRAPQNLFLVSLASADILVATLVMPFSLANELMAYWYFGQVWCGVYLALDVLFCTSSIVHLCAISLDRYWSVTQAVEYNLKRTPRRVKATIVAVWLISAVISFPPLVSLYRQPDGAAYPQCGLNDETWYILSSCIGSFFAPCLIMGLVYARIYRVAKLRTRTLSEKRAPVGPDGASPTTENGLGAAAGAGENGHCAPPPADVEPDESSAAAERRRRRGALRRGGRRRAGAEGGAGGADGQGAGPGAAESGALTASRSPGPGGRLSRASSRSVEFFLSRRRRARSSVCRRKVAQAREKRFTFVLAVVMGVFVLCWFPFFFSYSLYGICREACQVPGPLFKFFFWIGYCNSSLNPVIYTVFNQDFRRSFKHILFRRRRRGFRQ
T13 sequence (P13945 whole entry): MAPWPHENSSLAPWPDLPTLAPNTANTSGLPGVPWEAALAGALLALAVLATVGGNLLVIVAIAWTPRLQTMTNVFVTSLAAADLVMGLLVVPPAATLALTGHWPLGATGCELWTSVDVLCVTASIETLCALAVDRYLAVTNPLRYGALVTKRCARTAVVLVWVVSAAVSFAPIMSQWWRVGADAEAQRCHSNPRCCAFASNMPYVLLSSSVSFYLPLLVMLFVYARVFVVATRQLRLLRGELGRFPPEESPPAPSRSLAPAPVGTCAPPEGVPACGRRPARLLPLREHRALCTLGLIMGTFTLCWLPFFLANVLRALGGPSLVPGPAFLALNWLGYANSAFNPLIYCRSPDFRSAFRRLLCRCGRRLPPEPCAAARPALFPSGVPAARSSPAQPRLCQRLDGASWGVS
T5 sequence (P25103 whole entry): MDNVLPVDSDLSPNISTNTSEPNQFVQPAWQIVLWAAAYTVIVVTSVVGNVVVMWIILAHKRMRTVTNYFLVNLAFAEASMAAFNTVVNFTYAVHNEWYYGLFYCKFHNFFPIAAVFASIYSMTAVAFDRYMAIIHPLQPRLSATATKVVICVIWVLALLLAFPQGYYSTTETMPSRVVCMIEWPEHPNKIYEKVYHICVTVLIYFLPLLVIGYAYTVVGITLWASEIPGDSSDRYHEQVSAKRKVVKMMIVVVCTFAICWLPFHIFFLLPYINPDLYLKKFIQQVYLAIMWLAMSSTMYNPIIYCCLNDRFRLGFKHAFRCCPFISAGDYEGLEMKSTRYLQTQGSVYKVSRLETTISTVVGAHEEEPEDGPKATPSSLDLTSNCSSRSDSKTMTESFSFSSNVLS
T8 sequence (Q13639 1-378 isoform Q13639-5): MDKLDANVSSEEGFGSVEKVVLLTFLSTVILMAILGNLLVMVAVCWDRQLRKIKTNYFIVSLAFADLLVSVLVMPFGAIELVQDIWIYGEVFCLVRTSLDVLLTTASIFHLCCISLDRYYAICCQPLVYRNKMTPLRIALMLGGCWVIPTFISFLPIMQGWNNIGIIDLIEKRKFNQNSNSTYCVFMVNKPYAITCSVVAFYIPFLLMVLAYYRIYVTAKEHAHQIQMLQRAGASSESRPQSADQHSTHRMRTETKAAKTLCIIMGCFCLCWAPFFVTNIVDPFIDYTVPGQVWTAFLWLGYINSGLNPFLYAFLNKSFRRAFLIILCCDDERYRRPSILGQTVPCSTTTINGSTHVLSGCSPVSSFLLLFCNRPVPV
T1 sequence (P41143 whole entry): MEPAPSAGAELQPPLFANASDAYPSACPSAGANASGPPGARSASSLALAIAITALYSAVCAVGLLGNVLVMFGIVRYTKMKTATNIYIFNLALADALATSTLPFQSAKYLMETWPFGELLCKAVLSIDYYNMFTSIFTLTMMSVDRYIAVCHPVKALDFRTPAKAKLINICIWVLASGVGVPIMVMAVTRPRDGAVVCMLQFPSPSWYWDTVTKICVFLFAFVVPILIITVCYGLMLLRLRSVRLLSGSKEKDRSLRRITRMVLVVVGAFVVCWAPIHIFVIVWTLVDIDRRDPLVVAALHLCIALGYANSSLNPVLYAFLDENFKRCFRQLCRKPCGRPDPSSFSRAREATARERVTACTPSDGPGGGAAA
T11 sequence (P41968 whole entry): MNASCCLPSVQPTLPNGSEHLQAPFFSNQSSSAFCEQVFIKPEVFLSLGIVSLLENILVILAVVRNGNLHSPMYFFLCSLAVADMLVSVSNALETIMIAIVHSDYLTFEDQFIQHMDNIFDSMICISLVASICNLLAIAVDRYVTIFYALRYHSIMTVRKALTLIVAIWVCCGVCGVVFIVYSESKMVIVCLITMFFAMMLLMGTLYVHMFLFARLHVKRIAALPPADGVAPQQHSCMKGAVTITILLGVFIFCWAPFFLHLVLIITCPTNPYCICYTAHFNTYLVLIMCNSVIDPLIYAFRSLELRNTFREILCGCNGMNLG
T3 sequence (P08172 whole entry): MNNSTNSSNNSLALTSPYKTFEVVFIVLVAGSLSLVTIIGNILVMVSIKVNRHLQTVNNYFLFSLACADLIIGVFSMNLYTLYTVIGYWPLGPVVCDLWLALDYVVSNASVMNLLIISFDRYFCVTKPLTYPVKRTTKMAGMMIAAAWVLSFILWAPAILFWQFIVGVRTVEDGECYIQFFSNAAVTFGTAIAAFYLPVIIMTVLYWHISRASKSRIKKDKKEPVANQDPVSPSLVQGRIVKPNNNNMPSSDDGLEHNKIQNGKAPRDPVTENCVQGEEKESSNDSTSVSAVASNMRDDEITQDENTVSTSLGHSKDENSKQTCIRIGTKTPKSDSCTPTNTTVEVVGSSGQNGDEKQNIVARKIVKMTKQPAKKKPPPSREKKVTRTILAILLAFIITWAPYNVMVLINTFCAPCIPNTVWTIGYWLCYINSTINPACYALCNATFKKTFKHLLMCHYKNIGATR

Turning to `CC(C)(C)N1CCC(c2cc(-c3ccc(F)cc3Cl)c3cc[n+]([O-])c(-c4c(Cl)cccc4Cl)c3n2)CC1` [compound 2], the IC50 in [1] (setting [4]) was 0.022 µM; in [1] (setting [5]), 0.023 µM and 0.009 µM and 0.055 µM. Also, the “inhibition in the rest of the panel” value in assay [2] is “less than 50%”.
For the molecule `Cc1ccc(C(=O)NCC2CC2)cc1-c1ccc2c(c1)NC(=O)C21CCCC1` [compound 3], the IC50 in [1] (setting [4]) is 0.172 µM; in assay [1] (Homo sapiens, NHBE, individual values, donor #1, read-out: Inhibition of TSLP production in NHBE (IC50)) it was 0.186 µM; in assay [1] (setting [5]) it was 0.211 µM and 0.131 µM. The “inhibition in the rest of the panel” value in [2] was “less than 50%”.
`Cn1cc(-c2cccc(-c3nc(C(=O)NC4C5CC6CC4CC(O)(C6)C5)c(N)nc3N)c2)cn1` (stereo not shown) [compound 4]: the inhibition at 1 µM was -0.2% at delta 2 (DOP); 55% at PDE6 (1 μM, read-out: inhibition of PDE6); 55.6% at PDE6 (1 micromolar, PDE6 (non-selective), read-out: percentage of inhibition of activity); 7.4% on H3; 19.5% at M2; -0.5% at H1. Moreover, the inhibition at 1 µM at NK1 is 11.6%; on alpha 1B, 2.4%; on H2 it was 0%; at 5-HT4e it was 3.8%; on IP (PGI2), -5.1%; on GABAA1 (a1, b2, g2), -16%. Besides, the inhibition at 1 µM on MC3 is 8.8%; at neutral endopeptidase, 15.6%; at beta 3 it was 8.1%; on MC4 it was -5.1%; on 5-HT1B, -1.1%; at alpha 2C, -14.1%. Further, the IC50 in assay [1] (setting [4]) was 0.075 µM; in assay [1] (setting [5]), 0.052 µM and 0.037 µM and 0.178 µM and 0.1 µM and 0.036 µM and 0.147 µM. In [3], the “percentage of inhibition of activity” value is -5.3%.
For the molecule `CS(=O)(=O)N1CCN(c2ccc(Nc3ncc(C(N)=O)c(NC4CC4)n3)cc2)CC1` [compound 5], the IC50 in [1] (setting [4]) is 0.043 µM; in [1] (setting [5]) it was 0.026 µM and 0.048 µM and 0.028 µM and 0.054 µM and 0.083 µM.
For the molecule `COc1c(NC(=O)c2ccc(C)c(-c3nnc4c(NCC(C)(C)C)nccn34)c2)cc(C(C)(C)C)cc1NS(C)(=O)=O` [compound 7, reference compound], the IC50 in assay [1] (setting [4]) is 0.738 µM; in assay [1] (setting [5]), 0.486 µM and 0.72 µM and 1.15 µM; on p38α (geometric mean, read-out: Activity in reference biochemical assay (IC50, μM) (95% CI) p38α), 0.003 µM; on p38α (individual values, read-out: Biochemical activity (IC50, mM) (p38a)), 0.008 µM and 0.005 µM and 0.001 µM.
